# The source made the active and inactive calls. No cut-off for these calls is given here.
# Test system: Mycobacterium intracellulare
# Experiment: Antimycobacterial activity against Mycobacterium intracellular ATCC 23068 after 48 hrs
# Format: functional
# Conditions: for MIC: ATCC 23068, 48 h
MIC,Compound,Activity
50 µg/mL,CC(C)=C[C@H]1C[C@](C)(O)[C@@H]2[C@H]3CC[C@@H]4[C@@]5(C)CC[C@H](O[C@@H]6OC[C@H](O)[C@H](O[C@@H]7O[C@H](CO)[C@@H](O)[C@H](O)[C@H]7OC(=O)/C=C/c7ccc(O)cc7)[C@H]6O[C@@H]6O[C@@H](CO)[C@H](O)[C@H]6O)C(C)(C)[C@@H]5CC[C@@]4(C)[C@@]34CO[C@@]2(C4)O1,–
10 µg/mL,CC(C)=C[C@H]1C[C@](C)(O)[C@@H]2[C@H]3CC[C@@H]4[C@@]5(C)CC[C@H](O[C@@H]6OC[C@H](O)[C@H](O[C@@H]7O[C@H](CO)[C@@H](O)[C@H](OC(=O)/C=C/c8ccc(O)cc8)[C@H]7O)[C@H]6O[C@@H]6O[C@@H](CO)[C@H](O)[C@H]6O)C(C)(C)[C@@H]5CC[C@@]4(C)[C@@]34CO[C@@]2(C4)O1,–
0.3 µg/mL,CO[C@H]1/C=C/O[C@@]2(C)Oc3c(C)c(O)c4c(O)c(c(/C=N/N5CCN(C)CC5)c(O)c4c3C2=O)NC(=O)/C(C)=C\C=C\[C@H](C)[C@H](O)[C@@H](C)[C@@H](O)[C@@H](C)[C@H](OC(C)=O)[C@@H]1C [RIFAMPIN],–
–,CC(C)=C[C@H]1C[C@](C)(O)[C@@H]2[C@H]3CC[C@@H]4[C@@]5(C)CC[C@H](O[C@@H]6OC[C@H](O)[C@H](O[C@@H]7O[C@H](CO)[C@@H](O)[C@H](O)[C@H]7O)[C@H]6O[C@@H]6O[C@@H](CO)[C@H](O)[C@H]6O)C(C)(C)[C@@H]5CC[C@@]4(C)[C@@]34CO[C@@]2(C4)O1,inactive

# Source: ChEMBL document CHEMBL1144118, “New antimycobacterial saponin from Colubrina retusa” (1999)
